Tests used:
WM35 melanoma cells [1] = assay: apoptosis, annexin V and propidium iodide FACS; assay type: cell-based, human; conditions: 72 hours, low serum concentrations
Experimental: (§1) FIG. 14A includes scatter plots. […] WM35 melanoma cells were also treated with camptothecin as a positive control for apoptosis. FIGS. 14B and 14C include images of the treated cells stained for senescence-associated beta galactosidase.

NIH3T3 cells = assay: NIH3T3 cell proliferation; assay type: cell-based
Experimental: Cells were treated for 24 hours and proliferation was measured via ^3H-thymidine incorporation pre- and post-treatment. Data for each cell line were normalized to ^3H counts measured pre-treatment. […] Ac-DDDD-Tat is a control peptide for Lys-CoA-Tat. WM35, WM983A, and 1205Lu are melanoma cell lines representing three stages of cancer progression: radial, vertical, and metastatic, respectively.

[2] = system: global histone H3 acetylation in WM983A cells; assay: histone H3 acetylation Western blot in WM983A; assay type: cell-based, human; conditions: 6 hours, increasing doses
Experimental: Cells were treated with each compound for 24 hours, and proliferation was measured via ^3H-thymidine incorporation. […] Nuclear lysates were subjected to Western blot analysis for acetylated H3 (Upstate 06-599). Total H3 (Abeam ab1791) was blotted as a loading control.

Mel-1 melanoma cells = assay: combination with chemotherapy, total cell number; assay type: cell-based; conditions: 2 μM C646, 24 hours before chemotherapy agent
Experimental: The cells were grown for 24 hours in medium. The cells were given fresh medium and either 1 μM of cisplatin or 200 μM of temozolamide was added. Total cell number was counted on Day 0, at 24 hours, and 48 hours after addition of cisplatin or temozolamide.
After 24 hours, the treated and mock-treated cells were given fresh medium, and the cells were treated with cisplatin or temozolamide for 48 hours.

WM983A melanoma cells = assay: cell cycle analysis, propidium iodide FACS; assay type: cell-based, human; conditions: 48 hours
Experimental: The degree of growth arrest observed in these experiments corresponds with the decrease in ^3H-thymidine incorporation described above.
Cells treated with C646 or DMSO were stained with propidium iodide (PI). Briefly, equal number of cells (greater than 10 6) in 0.5 ml PBS were fixed in 70% ethanol for at least 2 h at 4° C. A stock staining solution containing 10 ml of 0.1% Triton X-100 in PBS, 400 μl of RNase cocktail (equivalent of −200 units of RNase A) (Ambion), and 200 μl of 1 mg/ml PI was prepared. Fixed cells were spun at 200 g for 5 min (Beckman Coulter Allegra® X-12R, with an SX4750A rotor), re-hydrated in 5 ml PBS, and spun again to remove all traces of ethanol. Cells were stained with 1 ml staining solution for 20 min at 37° C., then immediately analyzed on a FACSCalibur flow cytometer (BD Biosciences) at the Johns Hopkins Flow Cytometry Core Facility. Data acquisition and analysis were performed with the CellQuest software (BD). WinMDI 2.9 (http://facs.scripps.edu.software.html) was also used for data presentation.

H247 glioblastoma cells = assay: AlamarBlue growth inhibition, H247; assay type: cell-based; conditions: H247, 72 hours
Experimental: (§2) Dose response curves were generated using the AlamarBlue® assay (Invitrogen, Carlsbad, Calif.).
(§3) When inhibition was assessed using the AlamarBlue® assay (Invitrogen, Carlsbad, Calif.), cells were initially seeded at 500 cells per well in a 96-well plate. AlamarBlue® is a non-toxic reagent that measures cellular metabolic activity. Its main ingredient is resazurin, a non-fluorescent indicator dye that is reduced to bright red-fluorescent resorufin in metabolically active cells. AlamarBlue® was added to growth medium at 1/10 of the total volume (e.g., 20 μl in 200 μl total volume). […] Fluorescence reading was taken from the same plate every day for 5 days to ensure that the saturation point was not reached. Fluorescence intensity is proportional to the number of live cells in the plate.

[3] = system: histone H3 and H4 acetylation in C3H 10T1/2 mouse fibroblasts; assay: histone acetylation Western blot in mouse cells; assay type: cell-based; conditions: 25 μM, 1-3 hours
Description: Histones in mammalian cells show characteristic rates of turnover of acetylation, with a majority showing slower rates and a very minor fraction showing very fast turnover. This latter fraction has been associated with gene activation, and is defined by rapid hyperacetylation in the presence of deacetylase inhibitors such as Trichostatin A (TSA). In addition to SDS gels (FIG. 9A), Acid-Urea gels (AU, FIG. 9B) were used, on which loss of a positive charge upon lysine acetylation retards migration, producing a ladder of bands corresponding to integral changes in acetylation.
C3H 10T1/2 mouse fibroblasts were grown in DMEM with 10% FCS at 37° C. with 5% CO2. Confluent cultures were rendered quiescent in DMEM with 0.5% FCS for 18-20 h prior to treatment. […] Antibodies were used at the following concentrations: total H3 (1:10000; ab7834; Abcam); H4K12ac (1:2500; 06-761; Upstate). Rabbit anti-H3K9ac (1:10000) antibodies were generated in-house. Histones were isolated from cells by acid extraction, separated by SDS and acid-urea polyacrylamide gel electrophoresis and analyzed by Western blotting.

U87 glioblastoma cells = assay: AlamarBlue growth inhibition, U87; assay type: cell-based; conditions: U87, 72 hours
Experimental: as §2, §3

[4] = system: three melanoma and three non-small cell lung cancer lines; assay: 3H-thymidine incorporation, melanoma and lung cancer lines; assay type: cell-based, human; conditions: 24 hours; C646 10 μM, Lys-CoA-Tat 25 μM
Description: The following cell lines were used: WM35 (melanoma), WM983A (melanoma), 1205Lu (melanoma), H23 (NSCLC), H838 (NSCLC), and H1395 (NSCLC). Melanoma cells were maintained in Dulbecco's Modified Eagle Medium. NSCLCs were maintained in RPMI Medium 1640. Both types of media were supplemented with 10% fetal bovine serum (FBS), penicillin-streptomycin, and L-glutamine. Media, pen-strep, and L-glutamine were purchased from Invitrogen. FBS was purchased from Gemini Bio-Products (#100106). […] Compound stocks (10-20 mM in anhydrous DMSO) were directly added to culture media at desired concentrations. DMSO concentration was kept constant at 0.2% between different treatment conditions. Cells were seeded in 96-well plates at ˜5000 cells per well on average, depending on each cell line's doubling time. After attachment, cells were treated with p300 inhibitors, control compounds, or DMSO for 24 h. After treatment, ^3H-thymidine (1 mCi/ml stock) was added to media at 10 μCi/ml final concentration. Cells were incubated for an additional 5 hours, then trypsinized and collected onto a filter mat using a Cell Harvester (PerkinElmer). Radioactivity was measured with a MicroBeta plate reader (PerkinElmer). Each sample was tested in triplicate.

WM35 melanoma cells [5] = assay: senescence-associated beta galactosidase staining; assay type: cell-based, human; conditions: 72 hours, low and high serum concentrations
Experimental: as §1

Question: For `CC1=NN(c2ccc(C(=O)O)cc2)C(=O)C1=Cc1ccc(-c2cc(C)c(C)cc2[N+](=O)[O-])o1` [Compound C646, 4-(4,5-dihydro-3-methyl-4-((5-(4,5-dimethyl-2-nitrophenyl)furan-2-yl)methylene)-5-oxopyrazol-1-yl)benzoic acid], which apoptosis (WM35 melanoma cells [1]) is on record?
Answer: The apoptosis was “induced WM35 cell apoptosis”.

Question: What about the “effect on cell proliferation” value (NIH3T3 cells) of the same compound?
Answer: Its value is “does not have a significant inhibitory effect”.

Question: What about the “global histone H3 acetylation” value [2] of the same compound?
Answer: Its value is “dose-dependent reduction”.

Question: What about the sensitization to chemotherapy (Mel-1 melanoma cells) of the same compound?
Answer: The sensitization to chemotherapy was “sensitized the melanoma cells to temozolamide”.

Question: What about the cell cycle distribution (WM983A melanoma cells) of the same compound?
Answer: The cell cycle distribution was “decreased the number of cells in S and G2 phase”.

Question: And the IC50 (H247 glioblastoma cells)?
Answer: Its IC50 is 14.4 µM.

Question: And the “basal acetylation levels of H3 and H4” value [3]?
Answer: The value was “slightly diminished”.

Question: What about the “TSA-inducible acetylation of histones H3 and H4” value ([3]; TSA 33 nM final 30 min) of the same compound?
Answer: The value was “virtually completely inhibited”.

Question: And the IC50 (U87 glioblastoma cells)?
Answer: The IC50 was 15.1 µM.

Question: And the 3H-thymidine incorporation [4]?
Answer: The 3H-thymidine incorporation was “capable of reducing ^3H-thymidine incorporation in several of these human cancer lines”.

Question: What about the senescence (WM35 melanoma cells [5]) of the same compound?
Answer: Its senescence is “induced sensecence in WM35 cells”.

From patent US9005670B2, “Use of histone acetyltransferase inhibitors as novel anti-cancer therapies” (The Johns Hopkins University, priority 2010, dated 2015)
